# Results published in patent publication US8951789B2, “Mammalian artificial chromosome vector comprising human cytochrome P450 gene (cluster) and non-human mammalian animal retaining the same” (National University Corporation Tottori University, priority 2007, dated 2015).
# Experiments:
# CYP3A/Cyp3a [1] = assay: Midazolam metabolites in human liver microsomes by LC-MS/MS; settings: 10 μM midazolam, 37° C. 30 minutes
# Protocol: (§1) In order to investigate whether or not a human-specific metabolite of midazolam, which is known to be metabolized by CYP3A/Cyp3a, is observed in the TC (CYP3A-HACΔ)/Δcyp mouse as in the case of a human, microsomes derived from the liver of the TC(CYP3A-HACΔ)/Δcyp mouse, the Δcyp mouse, the B6 normal mouse, and the human were allowed to react with midazolam, and mass analysis was carried out via LC-MS/MS in the following manner. […] The reaction was terminated with the addition of acetonitrile, the mixture was centrifuged at 3,000 rpm for 5 minutes, and the supernatant was separated. The solvent was removed therefrom by distillation under a nitrogen stream at 40° C., the dried extract was redissolved in acetonitrile, and mass analysis was carried out by LC-MS/MS
# CYP3A/Cyp3a [2] = assay: Midazolam metabolites in mouse liver microsomes by LC-MS/MS; settings: 10 μM midazolam
# Protocol: as §1
# CYP3A/Cyp3a expression = assay: Induction of CYP3A/Cyp3a expression by PCN, Western blot of liver microsome fractions
# Protocol: In order to investigate the influence of pregnenolone 16α-carbonitrile (PCN) (Sigma), which is known as a substance inducing CYP3A/Cyp3a expression, on CYP3A/Cyp3a gene expression in TC(CYP3A-HACΔ)/Δcyp, Δcyp, and B6 normal mice, PCN was administered intraperitoneally for 4 days in amounts of 100 mg/kg per dose. A suspension of PCN in corn oil (Sigma) was prepared for administration.
SMILES,human-specific metabolite (10.22) (CYP3A/Cyp3a [1]),"human-specific metabolite (10.22) (CYP3A/Cyp3a [2]; TC(CYP3A-HACΔ)/Δcyp mouse liver microsomes, 37° C. 30 minutes)","main metabolite (10.62) (CYP3A/Cyp3a [2]; all microsomes (TC(CYP3A-HACΔ)/Δcyp, Δcyp, B6 normal mouse, human))","CYP3A expression level compared with corn oil mice of the same strain (CYP3A/Cyp3a expression; B6 normal mice, 100 mg/kg intraperitoneally for 4 days, liver on day 5)","CYP3A expression (CYP3A/Cyp3a expression; mouse, in vivo, ip, 100 mg/kg)","CYP3A expression level compared with corn oil mice of the same strain (CYP3A/Cyp3a expression; mouse, in vivo, ip, 100 mg/kg)","metabolic activity (triazolam hydroxylation) of liver microsomes, PCN-administered versus corn oil-administered mice (CYP3A4) [times]"
Cc1ncc2n1-c1ccc(Cl)cc1C(c1ccccc1F)=NC2 [midazolam],detected,detected,detected in all microsomes,–,–,–,–
"CC(=O)[C@H]1[C@H](C#N)C[C@H]2[C@@H]3CC=C4C[C@@H](O)CC[C@]4(C)[C@H]3CC[C@@]21C [PCN, pregnenolone 16α-carbonitrile]",–,–,–,elevated,not observed,elevated,10
